Measurements: US20190047966A1, “NOVEL COMPOUND AND PHARMACOLOGICALLY ACCEPTABLE SALT THEREOF” (MEIJI SEIKA PHARMA CO., LTD., priority 2016, published 2019)
Structures can show the parent of a compound that is named as a salt.

Tests used:
[1] = biological target: T1, human histamine H4 receptor (Homo sapiens, UniProt Q9H3N8); assay: Evaluation of Human H4 Receptor Affinity ([3H]histamine binding); conditions: inhibition constant Ki, CHO-K1 membrane preparation, read-out: Evaluation of H4 Receptor Affinity
T1 construct: purchased PerkinElmer Inc; host or cells: CHO-K1
Summary of the method: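 Membranes from CHO-K1 cells expressing human H4 receptor incubated with 8.2 nM [3H]histamine and compound for 90 min at 25 °C in 50 mM Tris-HCl pH 7.4, 1.25 mM EDTA, then filtered and counted. Nonspecific binding defined with 1.0 μM histamine; Ki from IC50 by Cheng-Prusoff using Kd 5.7 nM.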

[2] = biological target: human histamine H1 receptor (Homo sapiens, UniProt P35367); assay: Evaluation of Human H1 Receptor Affinity ([3H]pyrilamine binding); design: purchased PerkinElmer Inc; host or cells: CHO-K1; conditions: inhibition constant Ki, CHO-K1 membrane preparation
Summary of the method: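 Ki values are Cheng-Prusoff conversions of IC50 (Kd 1.1 nM) from radioligand displacement of 1.2 nM [3H]pyrilamine, with 1.0 μM pyrilamine defining nonspecific binding.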

T1 sequence (Q9H3N8 whole entry): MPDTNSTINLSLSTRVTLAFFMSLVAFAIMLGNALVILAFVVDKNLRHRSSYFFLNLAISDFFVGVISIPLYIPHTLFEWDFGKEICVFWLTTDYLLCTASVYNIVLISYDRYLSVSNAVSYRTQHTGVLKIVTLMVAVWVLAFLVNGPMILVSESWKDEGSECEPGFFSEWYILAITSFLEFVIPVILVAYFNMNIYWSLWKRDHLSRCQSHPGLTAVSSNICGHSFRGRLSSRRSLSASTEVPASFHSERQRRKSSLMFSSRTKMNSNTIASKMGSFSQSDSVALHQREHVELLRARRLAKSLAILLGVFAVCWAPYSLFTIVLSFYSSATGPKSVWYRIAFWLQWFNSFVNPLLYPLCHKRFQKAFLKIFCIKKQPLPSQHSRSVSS
Chain of human histamine H1 receptor (P35367 whole entry): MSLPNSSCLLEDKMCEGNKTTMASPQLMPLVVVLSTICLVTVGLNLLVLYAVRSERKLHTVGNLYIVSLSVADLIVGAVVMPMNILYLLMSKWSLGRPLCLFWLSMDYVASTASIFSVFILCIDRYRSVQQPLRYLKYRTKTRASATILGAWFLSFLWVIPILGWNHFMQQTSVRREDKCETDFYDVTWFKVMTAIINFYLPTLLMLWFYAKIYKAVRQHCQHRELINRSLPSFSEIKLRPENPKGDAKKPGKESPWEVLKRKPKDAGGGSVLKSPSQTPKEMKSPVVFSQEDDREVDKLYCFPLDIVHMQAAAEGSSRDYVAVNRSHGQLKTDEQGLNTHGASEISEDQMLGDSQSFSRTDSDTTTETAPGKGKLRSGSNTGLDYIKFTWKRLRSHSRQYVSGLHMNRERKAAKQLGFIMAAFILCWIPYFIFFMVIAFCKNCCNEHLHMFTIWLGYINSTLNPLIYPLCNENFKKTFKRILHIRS

**Q.** Which Ki [1] does the source give for Nc1nc2c(c(N3CCN(CCOCc4nc(C(=O)O)cs4)CC3)n1)CCc1cc(OCc3ccc(OC(F)(F)F)cc3)ccc1-2 [Example 142, 2-((2-(4-(2-amino-8-((4-(trifluoromethoxy)benzyl)oxy)-5,6-dihydrobenzo[h]quinazolin-4-yl)piperazin-1-yl)ethoxy)methyl)thiazole-4-carboxylic acid dihydrochloride] here?
**A.** < 100 nM

**Q.** And the Ki [2]?
**A.** < 100 nM

**Q.** For Nc1nc2c(c(N3CCN(CCCOCc4nnn[nH]4)CC3)n1)CCc1cc(OCc3ccc(Cl)cc3)ccc1-2 [Example 144, 4-(4-(3-((tetrazol-5-yl)methoxy)propyl)piperazin-1-yl)-8-((4-chlorobenzyl)oxy)-5,6-dihydrobenzo[h]quinazolin-2-amine bis(trifluoroacetate)], which Ki [1] is on record?
**A.** < 100 nM

**Q.** And the Ki [2]?
**A.** < 100 nM

**Q.** Nc1nc2c(c(N3CCN(CCCCOCc4nnn[nH]4)CC3)n1)CCc1cc(OCc3ccc(Cl)cc3)ccc1-2 [Example 145, 4-(4-(4-((tetrazol-5-yl)methoxy)butyl)piperazin-1-yl)-8-((4-chlorobenzyl)oxy)-5,6-dihydrobenzo[h]quinazolin-2-amine bis(trifluoroacetate)] was tested. Which Ki [1] did it give?
**A.** < 100 nM

**Q.** And the Ki [2]?
**A.** < 100 nM

**Q.** How did the Ki [1] turn out when Nc1nc2c(c(N3CCN(CCO[C@H]4C[C@@H]5[C@H](C4)[C@H]5C(=O)O)CC3)n1)CCc1cc(OCc3ccc(OC(F)(F)F)cc3)ccc1-2 [Example 146, (1R,3r,5S,6r)-3-(2-(4-(2-amino-8-((4-(trifluoromethoxy)benzyl)oxy)-5,6-dihydrobenzo[h]quinazolin-4-yl)piperazin-1-yl)ethoxy)bicyclo[3.1.0]hexane-6-carboxylic acid] was run?
**A.** 100 to 500 nM

**Q.** What about the Ki [2] of the same compound?
**A.** < 100 nM

**Q.** Which results are given for Nc1nc2c(c(N3CCN(CCO[C@@H]4C[C@@H]5[C@H](C4)[C@H]5C(=O)O)CC3)n1)CCc1cc(OCc3ccc(OC(F)(F)F)cc3)ccc1-2 [Example 147, (1R,3s,55,6r)-3-(2-(4-(2-amino-8-((4-(trifluoromethoxy)benzyl)oxy)-5,6-dihydrobenzo[h]quinazolin-4-yl)piperazin-1-yl)ethoxy)bicyclo[3.1.0]hexane-6-carboxylic acid]?
**A.** Ki [1]: < 100 nM; Ki [2]: < 100 nM

**Q.** How did the Ki [1] turn out when Nc1nc2c(c(N3CCN(CCO[C@@H]4C[C@@H]5[C@H](C4)[C@@H]5C(=O)O)CC3)n1)CCc1cc(OCc3ccc(OC(F)(F)F)cc3)ccc1-2 [Example 148, (1R,3s,5S,6s)-3-(2-(4-(2-amino-8-((4-(trifluoromethoxy)benzyl)oxy)-5,6-dihydrobenzo[h]quinazolin-4-yl)piperazin-1-yl)ethoxy)bicyclo[3.1.0]hexane-6-carboxylic acid] was run?
**A.** 100 to 500 nM

**Q.** And the Ki [2]?
**A.** < 100 nM

**Q.** What does the source list for COC(=O)CC1CN(C(=O)OCCN2CCN(c3nc(N)nc4c3CCc3cc(OCc5ccc(Cl)cc5)ccc3-4)CC2)C1 [Example 149, 2-(4-(2-amino-8-((4-chlorobenzyl)oxy)-5,6-dihydrobenzo[h]quinazolin-4-yl)piperazin-1-yl)ethyl 3-(2-methoxy-2-oxoethyl)azetidine-1-carboxylate]?
**A.** Ki [1]: 100 to 500 nM; Ki [2]: < 100 nM

**Q.** With COC(=O)C1CN(C(=O)OCCN2CCN(c3nc(N)nc4c3CCc3cc(OCc5ccc(Cl)cc5)ccc3-4)CC2)C1 [Example 150, 1-(2-(4-(2-amino-8-((4-chlorobenzyl)oxy)-5,6-dihydrobenzo[h]quinazolin-4-yl)piperazin-1-yl)ethyl) 3-methyl azetidine-1,3-dicarboxylate] as the compound, how does the Ki [1] read?
**A.** 100 to 500 nM

**Q.** What about the Ki [2] of the same compound?
**A.** < 100 nM

**Q.** For Nc1nc2c(c(N3CCN(CCOCC45C6C7C4C4C5C6C74C(=O)O)CC3)n1)CCc1cc(OCc3ccc(Cl)cc3)ccc1-2 (stereo not shown) [Example 151, 4-((2-(4-(2-amino-8-((4-chlorobenzyl)oxy)-5,6-dihydrobenzo[h]quinazolin-4-yl)piperazin-1-yl)ethoxy)methyl)pentacyclo[4.2.0.0^2.5.0^3.8.0^4.7]octane-1-carboxylic acid dihydrochloride], which Ki [1] is on record?
**A.** < 100 nM

**Q.** What about the Ki [2] of the same compound?
**A.** < 100 nM

**Q.** For Nc1nc2c(c(N3CCN(CCOC4CC4C(=O)O)CC3)n1)CCc1cc(OCc3ccc(Cl)cc3)ccc1-2 (stereo not shown) [Example 154, 2-(2-(4-(2-amino-8-((4-chlorobenzyl)oxy)-5,6-dihydrobenzo[h]quinazolin-4-yl)piperazin-1-yl)ethoxy)cyclopropane-1-carboxylic acid], which Ki [1] is on record?
**A.** 100 to 500 nM

**Q.** And the Ki [2]?
**A.** < 100 nM

**Q.** With Cn1cc(COCCN2CCN(c3nc(N)nc4c3CCc3cc(OCc5ccc(Cl)cc5)ccc3-4)CC2)cc1C(=O)O [Example 156, 4-((2-(4-(2-amino-8-((4-chlorobenzyl)oxy)-5,6-dihydrobenzo[h]quinazolin-4-yl)piperazin-1-yl)ethoxy)methyl)-1-methyl-1H-pyrrole-2-carboxylic acid hydrochloride] as the compound, how does the Ki [1] read?
**A.** < 100 nM

**Q.** And the Ki [2]?
**A.** < 100 nM

**Q.** Nc1nc2c(c(N3CCN(CCOC45CCC(C(=O)O)(CC4)CC5)CC3)n1)CCc1cc(OCc3ccc(Cl)cc3)ccc1-2 [Example 157, 4-(2-(4-(2-amino-8-((4-chlorobenzyl)oxy)-5,6-dihydrobenzo[h]quinazolin-4-yl)piperazin-1-yl)ethoxy)bicyclo[2.2.2]octane-1-carboxylic acid hydrochloride] was tested. Which Ki [1] did it give?
**A.** < 100 nM

**Q.** And the Ki [2]?
**A.** < 100 nM

**Q.** Which results are given for CC12CCC(C(=O)O)(CC1OCCN1CCN(c3nc(N)nc4c3CCc3cc(OCc5ccc(Cl)cc5)ccc3-4)CC1)C2(C)C (stereo not shown) [Example 158, 3-(2-(4-(2-amino-8-((4-chlorobenzyl)oxy)-5,6-dihydrobenzo[h]quinazolin-4-yl)piperazin-1-yl)ethoxy)-4,7,7-trimethylbicyclo[2.2.1]heptane-1-carboxylic acid hydrochloride]?
**A.** Ki [1]: 100 to 500 nM; Ki [2]: < 100 nM

**Q.** Which Ki [1] does the source give for CC1(C(=O)O)CCC(OCCN2CCN(c3nc(N)nc4c3CCc3cc(OCc5ccc(Cl)cc5)ccc3-4)CC2)CC1 (stereo not shown) [Example 161, 4-(2-(4-(2-amino-8-((4-chlorobenzyl)oxy)-5,6-dihydrobenzo[h]quinazolin-4-yl)piperazin-1-yl)ethoxy)-1-methylcyclohexane-1-carboxylic acid] here?
**A.** < 100 nM

**Q.** And the Ki [2]?
**A.** < 100 nM

**Q.** Which results are given for CC(C)(C(=O)O)c1ccc(OCCN2CCN(c3nc(N)nc4c3CCc3cc(OCc5ccc(Cl)cc5)ccc3-4)CC2)cc1 [Example 162, 2-(4-(2-(4-(2-amino-8-((4-chlorobenzyl)oxy)-5,6-dihydrobenzo[h]quinazolin-4-yl)piperazin-1-yl)ethoxy)phenyl)-2-methylpropanoic acid]?
**A.** Ki [1]: 100 to 500 nM; Ki [2]: 100 to 500 nM

**Q.** Which Ki [1] does the source give for Nc1nc2c(c(N3CCN(CCOCC4(CCC(=O)O)COC4)CC3)n1)CCc1cc(OCc3ccc(Cl)cc3)ccc1-2 [Example 163, 3-(3-((2-(4-(2-amino-8-((4-chlorobenzyl)oxy)-5,6-dihydrobenzo[h]quinazolin-4-yl)piperazin-1-yl)ethoxy)methyl)oxetan-3-yl)propanoic acid] here?
**A.** < 100 nM

**Q.** And the Ki [2]?
**A.** < 100 nM

**Q.** With CC1(COCCN2CCN(c3nc(N)nc4c3CCc3cc(OCc5ccc(Cl)cc5)ccc3-4)CC2)CCC(C(=O)O)CC1 (stereo not drawn) [Example 164, cis- or trans-4-((2-(4-(2-amino-8-((4-chlorobenzyl)oxy)-5,6-dihydrobenzo[h]quinazolin-4-yl)piperazin-1-yl)ethoxy)methyl)-4-methylcyclohexane-1-carboxylic acid] as the compound, how does the Ki [1] read?
**A.** < 100 nM

**Q.** What about the Ki [2] of the same compound?
**A.** < 100 nM

**Q.** For CC1(C(=O)O)CCC(COCCN2CCN(c3nc(N)nc4c3CCc3cc(OCc5ccc(Cl)cc5)ccc3-4)CC2)CC1 (stereo not drawn) [Example 165, trans- or cis-4-((2-(4-(2-amino-8-((4-chlorobenzyl)oxy)-5,6-dihydrobenzo[h]quinazolin-4-yl)piperazin-1-yl)ethoxy)methyl)-1-methylcyclohexane-1-carboxylic acid], which Ki [1] is on record?
**A.** < 100 nM

**Q.** And the Ki [2]?
**A.** < 100 nM

**Q.** Which results are given for Nc1nc2c(c(N3CCN(CCOCCOCC4(C(=O)O)COC4)CC3)n1)CCc1cc(OCc3ccc(Cl)cc3)ccc1-2 [Example 168, 3-((2-(2-(4-(2-amino-8-((4-chlorobenzyl)oxy)-5,6-dihydrobenzo[h]quinazolin-4-yl)piperazin-1-yl)ethoxy)ethoxy)methyl)oxetane-3-carboxylic acid]?
**A.** Ki [1]: 100 to 500 nM; Ki [2]: < 100 nM

**Q.** What does the source list for Nc1nc2c(c(N3CCN(CCOCC4CC(C(=O)O)C4)CC3)n1)CCc1cc(OCc3ccc(Cl)cc3)ccc1-2 (stereo not drawn) [Example 169, cis- or trans-3-((2-(4-(2-amino-8-((4-chlorobenzyl)oxy)-5,6-dihydrobenzo[h]quinazolin-4-yl)piperazin-1-yl)ethoxy)methyl)cyclobutane-1-carboxylic acid]?
**A.** Ki [1]: 100 to 500 nM; Ki [2]: < 100 nM

**Q.** What does the source list for Nc1nc2c(c(N3CCN(CCOCC4CC(C(=O)O)C4)CC3)n1)CCc1cc(OCc3ccc(Cl)cc3)ccc1-2 (stereo not drawn) [Example 170, trans- or cis-3-((2-(4-(2-amino-8-((4-chlorobenzyl)oxy)-5,6-dihydrobenzo[h]quinazolin-4-yl)piperazin-1-yl)ethoxy)methyl)cyclobutane-1-carboxylic acid]?
**A.** Ki [1]: < 100 nM; Ki [2]: < 100 nM

**Q.** For CC(C)(C(=O)O)[C@H]1C[C@@H](OCCN2CCN(c3nc(N)nc4c3CCc3cc(OCc5ccc(Cl)cc5)ccc3-4)CC2)C1 [Example 172, cis-2-(3-(2-(4-(2-amino-8-((4-chlorobenzyl)oxy)-5,6-dihydrobenzo[h]quinazolin-4-yl)piperazin-1-yl)ethoxy)cyclobutyl)-2-methylpropanoic acid], which Ki [1] is on record?
**A.** < 100 nM

**Q.** What about the Ki [2] of the same compound?
**A.** < 100 nM

**Q.** Which Ki [1] does the source give for CC(C)(C(=O)O)[C@H]1C[C@H](OCCN2CCN(c3nc(N)nc4c3CCc3cc(OCc5ccc(Cl)cc5)ccc3-4)CC2)C1 [Example 173, trans-2-(3-(2-(4-(2-amino-8-((4-chlorobenzyl)oxy)-5,6-dihydrobenzo[h]quinazolin-4-yl)piperazin-1-yl)ethoxy)cyclobutyl)-2-methylpropanoic acid] here?
**A.** < 100 nM

**Q.** And the Ki [2]?
**A.** < 100 nM
